According to the NIST ThermoML archive (doi:10.1016/j.jct.2017.07.008):
Several values for one entry are separate records, joined by “and”; a condition that tells them apart may be missing. Equal entries are not always repeated. ± gives the expanded uncertainty stated by the source.

Settings: for surface tension liquid-gas: Drop volume; for viscosity / speed of sound / mass density: Liquid; for viscosity: Capillary tube (Ostwald / Ubbelohde) method; for speed of sound: Frequency=3 MHz, Single path-length method; for mass density: Vibrating tube method

O=Cc1cccs1 [2-thiophenealdehyde]
surface tension liquid-gas (283.15 K): 47.82 ± 0.34 mN/m
viscosity (283.15 K, 100 kPa): 2.796 ± 0.033 mPa·s
speed of sound (283.15 K, 100 kPa): 1512.8 ± 0.95 m/s
mass density (283.15 K, 100 kPa): 1232.44 ± 0.58 kg/m3 and 1232.47 ± 0.58 kg/m3
mass density (283.15 K, 2000 kPa): 1233.56 ± 0.58 kg/m3
mass density (283.15 K, 5000 kPa): 1235.26 ± 0.6 kg/m3
mass density (283.15 K, 7000 kPa): 1236.39 ± 0.61 kg/m3
mass density (283.15 K, 10000 kPa): 1238.06 ± 0.62 kg/m3
mass density (283.15 K, 15000 kPa): 1240.76 ± 0.65 kg/m3
mass density (283.15 K, 20000 kPa): 1243.38 ± 0.68 kg/m3
mass density (283.15 K, 25000 kPa): 1245.94 ± 0.72 kg/m3
mass density (283.15 K, 30000 kPa): 1248.47 ± 0.75 kg/m3
mass density (283.15 K, 35000 kPa): 1250.93 ± 0.79 kg/m3
mass density (283.15 K, 40000 kPa): 1253.33 ± 0.83 kg/m3
mass density (283.15 K, 45000 kPa): 1255.69 ± 0.87 kg/m3
mass density (283.15 K, 50000 kPa): 1258.02 ± 0.91 kg/m3
mass density (283.15 K, 55000 kPa): 1260.26 ± 0.95 kg/m3
mass density (283.15 K, 60000 kPa): 1262.44 ± 1 kg/m3
mass density (283.15 K, 65000 kPa): 1264.58 ± 1 kg/m3
surface tension liquid-gas (285.65 K): 47.52 ± 0.33 mN/m
viscosity (285.65 K, 100 kPa): 2.661 ± 0.032 mPa·s
speed of sound (285.65 K, 100 kPa): 1504.3 ± 0.95 m/s
mass density (285.65 K, 100 kPa): 1229.92 ± 0.58 kg/m3
surface tension liquid-gas (288.15 K): 47.22 ± 0.33 mN/m
viscosity (288.15 K, 100 kPa): 2.513 ± 0.03 mPa·s
speed of sound (288.15 K, 100 kPa): 1495.9 ± 0.95 m/s
mass density (288.15 K, 100 kPa): 1227.39 ± 0.57 kg/m3
mass density (288.15 K, 2000 kPa): 1228.51 ± 0.58 kg/m3
mass density (288.15 K, 5000 kPa): 1230.24 ± 0.6 kg/m3
mass density (288.15 K, 7000 kPa): 1231.38 ± 0.61 kg/m3
mass density (288.15 K, 10000 kPa): 1233.07 ± 0.62 kg/m3
mass density (288.15 K, 15000 kPa): 1235.82 ± 0.65 kg/m3
mass density (288.15 K, 20000 kPa): 1238.51 ± 0.68 kg/m3
mass density (288.15 K, 25000 kPa): 1241.13 ± 0.71 kg/m3
mass density (288.15 K, 30000 kPa): 1243.69 ± 0.74 kg/m3
mass density (288.15 K, 35000 kPa): 1246.2 ± 0.78 kg/m3
mass density (288.15 K, 40000 kPa): 1248.64 ± 0.82 kg/m3
mass density (288.15 K, 45000 kPa): 1251.04 ± 0.86 kg/m3
mass density (288.15 K, 50000 kPa): 1253.38 ± 0.9 kg/m3
mass density (288.15 K, 55000 kPa): 1255.68 ± 0.94 kg/m3
mass density (288.15 K, 60000 kPa): 1257.93 ± 0.99 kg/m3
mass density (288.15 K, 65000 kPa): 1260.14 ± 1 kg/m3
surface tension liquid-gas (290.65 K): 46.92 ± 0.33 mN/m
viscosity (290.65 K, 100 kPa): 2.386 ± 0.029 mPa·s
speed of sound (290.65 K, 100 kPa): 1487.4 ± 0.95 m/s
mass density (290.65 K, 100 kPa): 1224.88 ± 0.57 kg/m3
surface tension liquid-gas (293.15 K): 46.6 ± 0.33 mN/m
viscosity (293.15 K, 100 kPa): 2.267 ± 0.027 mPa·s
speed of sound (293.15 K, 100 kPa): 1479.1 ± 0.95 m/s
mass density (293.15 K, 100 kPa): 1222.35 ± 0.57 kg/m3 and 1222.36 ± 0.57 kg/m3
mass density (293.15 K, 2000 kPa): 1223.5 ± 0.58 kg/m3
mass density (293.15 K, 5000 kPa): 1225.27 ± 0.59 kg/m3
mass density (293.15 K, 7000 kPa): 1226.44 ± 0.6 kg/m3
mass density (293.15 K, 10000 kPa): 1228.16 ± 0.62 kg/m3
mass density (293.15 K, 15000 kPa): 1230.98 ± 0.64 kg/m3
mass density (293.15 K, 20000 kPa): 1233.73 ± 0.67 kg/m3
mass density (293.15 K, 25000 kPa): 1236.41 ± 0.7 kg/m3
mass density (293.15 K, 30000 kPa): 1239.02 ± 0.74 kg/m3
mass density (293.15 K, 35000 kPa): 1241.57 ± 0.77 kg/m3
mass density (293.15 K, 40000 kPa): 1244.07 ± 0.81 kg/m3
mass density (293.15 K, 45000 kPa): 1246.51 ± 0.85 kg/m3
mass density (293.15 K, 50000 kPa): 1248.9 ± 0.89 kg/m3
mass density (293.15 K, 55000 kPa): 1251.24 ± 0.93 kg/m3
mass density (293.15 K, 60000 kPa): 1253.53 ± 0.97 kg/m3
mass density (293.15 K, 65000 kPa): 1255.77 ± 1 kg/m3
surface tension liquid-gas (295.65 K): 46.27 ± 0.33 mN/m
viscosity (295.65 K, 100 kPa): 2.162 ± 0.026 mPa·s
speed of sound (295.65 K, 100 kPa): 1470.8 ± 0.95 m/s
mass density (295.65 K, 100 kPa): 1219.84 ± 0.57 kg/m3
surface tension liquid-gas (298.15 K): 45.99 ± 0.33 mN/m
viscosity (298.15 K, 100 kPa): 2.053 ± 0.025 mPa·s
speed of sound (298.15 K, 100 kPa): 1462.4 ± 0.95 m/s
mass density (298.15 K, 100 kPa): 1217.32 ± 0.57 kg/m3
mass density (298.15 K, 2000 kPa): 1218.49 ± 0.58 kg/m3
mass density (298.15 K, 5000 kPa): 1220.31 ± 0.59 kg/m3
mass density (298.15 K, 7000 kPa): 1221.5 ± 0.6 kg/m3
mass density (298.15 K, 10000 kPa): 1223.27 ± 0.62 kg/m3
mass density (298.15 K, 15000 kPa): 1226.15 ± 0.64 kg/m3
mass density (298.15 K, 20000 kPa): 1228.95 ± 0.67 kg/m3
mass density (298.15 K, 25000 kPa): 1231.69 ± 0.7 kg/m3
mass density (298.15 K, 30000 kPa): 1234.36 ± 0.73 kg/m3
mass density (298.15 K, 35000 kPa): 1236.96 ± 0.77 kg/m3
mass density (298.15 K, 40000 kPa): 1239.51 ± 0.8 kg/m3
mass density (298.15 K, 45000 kPa): 1242 ± 0.84 kg/m3
mass density (298.15 K, 50000 kPa): 1244.43 ± 0.88 kg/m3
mass density (298.15 K, 55000 kPa): 1246.81 ± 0.92 kg/m3
mass density (298.15 K, 60000 kPa): 1249.14 ± 0.96 kg/m3
mass density (298.15 K, 65000 kPa): 1251.43 ± 1 kg/m3
surface tension liquid-gas (300.65 K): 45.68 ± 0.33 mN/m
viscosity (300.65 K, 100 kPa): 1.96 ± 0.024 mPa·s
speed of sound (300.65 K, 100 kPa): 1454 ± 0.95 m/s
mass density (300.65 K, 100 kPa): 1214.8 ± 0.57 kg/m3
surface tension liquid-gas (303.15 K): 45.4 ± 0.33 mN/m
viscosity (303.15 K, 100 kPa): 1.875 ± 0.023 mPa·s
speed of sound (303.15 K, 100 kPa): 1445.7 ± 0.95 m/s
mass density (303.15 K, 100 kPa): 1212.28 ± 0.57 kg/m3 and 1212.29 ± 0.57 kg/m3
mass density (303.15 K, 2000 kPa): 1213.48 ± 0.58 kg/m3
mass density (303.15 K, 5000 kPa): 1215.34 ± 0.59 kg/m3
mass density (303.15 K, 7000 kPa): 1216.56 ± 0.6 kg/m3
mass density (303.15 K, 10000 kPa): 1218.37 ± 0.61 kg/m3
mass density (303.15 K, 15000 kPa): 1221.32 ± 0.64 kg/m3
mass density (303.15 K, 20000 kPa): 1224.19 ± 0.67 kg/m3
mass density (303.15 K, 25000 kPa): 1226.98 ± 0.69 kg/m3
mass density (303.15 K, 30000 kPa): 1229.71 ± 0.73 kg/m3
mass density (303.15 K, 35000 kPa): 1232.36 ± 0.76 kg/m3
mass density (303.15 K, 40000 kPa): 1234.96 ± 0.8 kg/m3
mass density (303.15 K, 45000 kPa): 1237.49 ± 0.83 kg/m3
mass density (303.15 K, 50000 kPa): 1239.97 ± 0.87 kg/m3
mass density (303.15 K, 55000 kPa): 1242.4 ± 0.91 kg/m3
mass density (303.15 K, 60000 kPa): 1244.77 ± 0.95 kg/m3
mass density (303.15 K, 65000 kPa): 1247.09 ± 1 kg/m3
surface tension liquid-gas (305.65 K): 45.08 ± 0.33 mN/m
viscosity (305.65 K, 100 kPa): 1.797 ± 0.022 mPa·s
speed of sound (305.65 K, 100 kPa): 1437.3 ± 0.95 m/s
mass density (305.65 K, 100 kPa): 1209.76 ± 0.57 kg/m3
surface tension liquid-gas (308.15 K): 44.75 ± 0.32 mN/m
viscosity (308.15 K, 100 kPa): 1.728 ± 0.021 mPa·s
speed of sound (308.15 K, 100 kPa): 1429 ± 0.95 m/s
mass density (308.15 K, 100 kPa): 1207.25 ± 0.57 kg/m3
mass density (308.15 K, 2000 kPa): 1208.47 ± 0.58 kg/m3
mass density (308.15 K, 5000 kPa): 1210.38 ± 0.59 kg/m3
mass density (308.15 K, 7000 kPa): 1211.63 ± 0.6 kg/m3
mass density (308.15 K, 10000 kPa): 1213.48 ± 0.61 kg/m3
mass density (308.15 K, 15000 kPa): 1216.49 ± 0.63 kg/m3
mass density (308.15 K, 20000 kPa): 1219.43 ± 0.66 kg/m3
mass density (308.15 K, 25000 kPa): 1222.28 ± 0.69 kg/m3
mass density (308.15 K, 30000 kPa): 1225.06 ± 0.72 kg/m3
mass density (308.15 K, 35000 kPa): 1227.77 ± 0.75 kg/m3
mass density (308.15 K, 40000 kPa): 1230.42 ± 0.79 kg/m3
mass density (308.15 K, 45000 kPa): 1233 ± 0.83 kg/m3
mass density (308.15 K, 50000 kPa): 1235.53 ± 0.86 kg/m3
mass density (308.15 K, 55000 kPa): 1238 ± 0.9 kg/m3
mass density (308.15 K, 60000 kPa): 1240.41 ± 0.94 kg/m3
mass density (308.15 K, 65000 kPa): 1242.78 ± 0.99 kg/m3
surface tension liquid-gas (310.65 K): 44.48 ± 0.32 mN/m
viscosity (310.65 K, 100 kPa): 1.654 ± 0.02 mPa·s
speed of sound (310.65 K, 100 kPa): 1420.7 ± 0.95 m/s
mass density (310.65 K, 100 kPa): 1204.73 ± 0.57 kg/m3
surface tension liquid-gas (313.15 K): 44.17 ± 0.32 mN/m
viscosity (313.15 K, 100 kPa): 1.59 ± 0.019 mPa·s
speed of sound (313.15 K, 100 kPa): 1412.4 ± 0.95 m/s
mass density (313.15 K, 100 kPa): 1202.21 ± 0.57 kg/m3
mass density (313.15 K, 2000 kPa): 1203.46 ± 0.57 kg/m3
mass density (313.15 K, 5000 kPa): 1205.41 ± 0.59 kg/m3
mass density (313.15 K, 7000 kPa): 1206.7 ± 0.59 kg/m3
mass density (313.15 K, 10000 kPa): 1208.59 ± 0.61 kg/m3
mass density (313.15 K, 15000 kPa): 1211.67 ± 0.63 kg/m3
mass density (313.15 K, 20000 kPa): 1214.67 ± 0.66 kg/m3
mass density (313.15 K, 25000 kPa): 1217.59 ± 0.69 kg/m3
mass density (313.15 K, 30000 kPa): 1220.43 ± 0.72 kg/m3
mass density (313.15 K, 35000 kPa): 1223.19 ± 0.75 kg/m3
mass density (313.15 K, 40000 kPa): 1225.89 ± 0.78 kg/m3
mass density (313.15 K, 45000 kPa): 1228.52 ± 0.82 kg/m3
mass density (313.15 K, 50000 kPa): 1231.1 ± 0.85 kg/m3
mass density (313.15 K, 55000 kPa): 1233.61 ± 0.89 kg/m3
mass density (313.15 K, 60000 kPa): 1236.07 ± 0.93 kg/m3
